Source: US6337344B1, “Indole derivatives as inhibitors or factor Xa” (Aventis Pharma Deutschland GmbH, priority 1997, dated 2002)
Counter-ions that a name gives are not always drawn.

Test system: not given
Assay: not given

| SMILES | melting point |
| --- | --- |
| Cc1cccc2c1cc(C(=O)NCc1cccc(C(=N)N)c1)n2Cc1cccc(C(=N)N)c1.O=C(O)C(F)(F)F.O=C(O)C(F)(F)F [Example 47, 1-(3-Amidino-benzyl)-4-methyl-1H-indole-2-carboxylic acid 3-amidino-benzyl amide trifluoroacetic acid salt] | 242 to 243 °C |
| N=C(N)c1ccc(CNC(=O)c2cc3c(O)cccc3n2Cc2cccc(C(=N)N)c2)cc1.O=C(O)C(F)(F)F.O=C(O)C(F)(F)F [Example 78, 1-(3-Amidino-benzyl)-4-hydroxy-1H-indole-2-carboxylic acid 4-amidino-benzylamide trifluoroacetic acid salt] | 155 to 157 °C |
| CN1CCC(C(NC(=O)c2cc3ccccc3n2Cc2cccc(C(=N)N)c2)c2ccc3cc(Cl)ccc3c2)CC1.O=C(O)C(F)(F)F.O=C(O)C(F)(F)F (racemic) [Example 27, (RS)-1-(3-Amidino-benzyl)-1H-indole-2-carboxylic acid ((6-chloro-2-naphthyl)-(1-methyl-piperidin-4-yl)-methyl)amide trifluoroacetic acid salt] | 110 to 120 °C |
| CC[N+](C)(C)c1ccc(CNC(=O)c2cc3cc(F)ccc3n2Cc2cccc(C(=N)N)c2)cc1.O=C(O)C(F)(F)F.O=C([O-])C(F)(F)F | 73 to 75 °C (dec.) |
| COc1cccc2c1cc(C(=O)NCCc1cc[n+](C)cc1)n2Cc1cccc(C(=N)N)c1.O=C(O)C(F)(F)F.O=C([O-])C(F)(F)F | 164 °C (dec.) |
| C[N+](C)(C)c1ccc(CNC(=O)c2cc3cc(OCc4ccccc4)ccc3n2Cc2cccc(C(=N)N)c2)cc1.O=C(O)C(F)(F)F.O=C([O-])C(F)(F)F [Example 56, [4-({[5-Benzyloxy-1-(3-amidino-benzyl)-1H-indole-2-carbonyl]-amino}-methyl)-phenyl]-trimethyl-ammonium trifluoroacetate trifluoroacetic acid salt] | 60 °C (dec.) |
| N=C(N)c1cccc(CNC(=O)Cc2cn(Cc3cccc(C(=N)N)c3)c3ccccc23)c1.O=C(O)C(F)(F)F.O=C(O)C(F)(F)F | 196 °C (dec.) |
| CC(=O)O.CCOC(=O)c1cc2c(C)cccc2n1Cc1cccc(C(=N)N)c1 | 187 °C (dec.) |
| COc1cccc2c1cc(C(=O)NCCc1ccncc1)n2Cc1cccc(/C(N)=N/O)c1.Cl.Cl | 215 to 217 °C |
| C[N+](C)(C)c1ccc(CNC(=O)c2cc3cc(F)ccc3n2Cc2cccc(C(=N)N)c2)cc1.O=C(O)C(F)(F)F.O=C([O-])C(F)(F)F | 120 to 124 °C |
| C[N+](C)(C)c1ccc(CNC(=O)c2c(Cl)c3ccccc3n2Cc2cccc(C(=N)N)c2)cc1 (as salt: trifluoroacetic acid salt) [Example 106] | 57 °C |
| CC(=O)O.CC(=O)[O-].C[N+](C)(C)c1ccc(CNC(=O)c2cc3c(O)cccc3n2Cc2cccc(C(=N)N)c2)cc1 [Example 39, [4-({[1-(3-Amidino-benzyl)-4-hydroxy-1H-indole-2-carbonyl]-amino}-methyl)-phenyl]-trimethyl-ammonium acetate acetic acid salt] | 113 °C (dec.) |
| CC(=O)O.CC(=O)[O-].C[N+](C)(C)c1ccc(CNC(=O)c2cc3c(Br)cccc3n2Cc2cccc(C(=N)N)c2)cc1 | 145 °C (dec.) |
| COc1cccc2c1cc(C(=O)NCc1ccc(O)cc1)n2Cc1cccc(C(=N)N)c1.Cl | 202 °C (dec.) |
| C[N+](C)(C)c1ccc(CNC(=O)c2cn(Cc3cccc(C(=N)N)c3)c3ccccc23)cc1.O=C(O)C(F)(F)F.O=C([O-])C(F)(F)F | 177 °C (dec.) |
| CC(=O)O.CC(=O)[O-].C[N+](C)(C)c1ccc(CNC(=O)c2cc3cc(Br)ccc3n2Cc2cccc(C(=N)N)c2)cc1 | 86 °C (dec.) |
| N=C(N)c1cccc(Cn2c(C(=O)NCCc3ccc(Cl)cc3Cl)cc3c(O)cccc32)c1.O=C(O)C(F)(F)F | 144 °C |
| CC(=O)O.CC(=O)[O-].C[N+](C)(C)c1ccc(CNC(=O)c2cc3cc(F)ccc3n2Cc2cccc(C3=NCCN3)c2)cc1 | 51 °C (dec.) |
| CC(=O)O.N=C(N)c1cccc(Cn2c(C(=O)NCc3ccccc3)cc3ccccc32)c1 | 266 to 268 °C (dec.) |
| N=C(N)c1cccc(CNC(=O)c2cc3c(O)cccc3n2Cc2cccc(C(=N)N)c2)c1.O=C(O)C(F)(F)F.O=C(O)C(F)(F)F [Example 77, 1-(3-Amidino-benzyl)-4-hydroxy-1H-indole-2-carboxylic acid 3-amidino-benzylamide trifluoroacetic acid salt] | 128 to 131 °C |
| C[N+](C)(C)c1ccc(CNC(=O)c2cc3cc(Cl)ccc3n2Cc2cccc(C(=N)N)c2)cc1.O=C(O)C(F)(F)F.O=C([O-])C(F)(F)F | 112 °C (dec.) |
| Cc1cc(CNC(=O)c2cc3c(O)cccc3n2Cc2cccc(C(=N)N)c2)cc(C(F)(F)F)c1 (as salt: trifluoroacetic acid salt) [Example 112] | 126 °C |
| C[N+](C)(C)c1ccc(CNC(=O)c2cc3c(OCc4ccccc4)cccc3n2Cc2cccc(C(=N)N)c2)cc1.[I-] [Example 68, [4-({[1-(3-Amidino-benzyl)-4-benzyloxy-1H-indole-2-carbonyl]-amino}-methyl)-phenyl]-trimethyl-ammonium iodide hydroiodide] | 158 °C (dec.) |
| C=CC[N+](C)(C)c1ccc(CNC(=O)c2cc3cc(F)ccc3n2Cc2cccc(C(=N)N)c2)cc1.CC(=O)O.[Cl-] | 133 °C (dec.) |

Target: T1, human factor Xa (Homo sapiens, UniProt P00742)
T1 construct: purchased Enzyme Research Laboratories, Inc; South Bend, Ind
Assay: Factor Xa assay (Test 1, a.), chromogenic substrate S-2765
Type: biochemical
Protocol: Purified enzymes are used in chromogenic assays. To determine the inhibition constant Ki, the IC50 value is corrected for competition with substrate using the formula
Ki'IC50×(1/{1+((substrate concentration)/substrate Km)})
wherein Km is the Michaelis-Menten constant (Chen and Prusoff, Biochem. Pharmacol. 22 (1973), […] which is incorporated herein by reference).
TBS-PEG buffer (50 mM Tris-Cl, pH 7.8, 200 mM NaCl, 0.05% (w/v) PEG-8000, 0.02% (w/v) NaN3) is used for this assay.
The assay is performed by pre-incubating the compound of formula I plus enzyme for 10 min. Then the assay is initiated by adding substrate to obtain a final volume of 100 μl. The initial velocity of chromogenic substrate hydrolysis is measured by the change in absorbance at 405 nm using a Bio-tek Instruments kinetic plate reader (Ceres UV900HDi) at 25° C. during the linear portion of the time course (usually 1.5 min after addition of substrate). The concentration of inhibitor that causes a 50% decrease in the rate of substrate hydrolysis is predicted by linear regression after plotting the relative rates of hydrolysis (compared to the uninhibited control) versus the log of the concentration of the compound of formula I. The enzyme concentration is 0.5 nM and substrate concentration is 140 μM.
The inhibition constants were determined as described above (Test 1, a., Factor Xa Assay).

T1 sequence (P00742 235-488 limits assumed): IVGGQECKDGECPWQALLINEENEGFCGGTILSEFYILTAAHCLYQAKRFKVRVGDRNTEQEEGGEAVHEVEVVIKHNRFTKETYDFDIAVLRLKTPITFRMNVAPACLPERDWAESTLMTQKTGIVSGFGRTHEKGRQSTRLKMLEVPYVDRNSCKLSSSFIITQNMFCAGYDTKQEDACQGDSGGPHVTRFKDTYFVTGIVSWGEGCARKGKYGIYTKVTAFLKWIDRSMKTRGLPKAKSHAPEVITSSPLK
T1 sequence (P00742 41-179 partner limits assumed): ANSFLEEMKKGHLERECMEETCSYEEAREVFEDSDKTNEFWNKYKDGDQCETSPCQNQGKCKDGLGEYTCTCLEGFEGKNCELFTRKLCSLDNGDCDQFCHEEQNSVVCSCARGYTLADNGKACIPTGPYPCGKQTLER

| SMILES | Ki |
| --- | --- |
| COC(=O)c1cccc(CNC(=O)c2cc3c(O)cccc3n2Cc2cccc(C(=N)N)c2)c1 [Example 132] | 2000 nM |
| Cc1cccc2c1cc(C(=O)NCc1cccc(C(=N)N)c1)n2Cc1cccc(C(=N)N)c1.O=C(O)C(F)(F)F.O=C(O)C(F)(F)F [Example 47, 1-(3-Amidino-benzyl)-4-methyl-1H-indole-2-carboxylic acid 3-amidino-benzyl amide trifluoroacetic acid salt] | 7 nM |
| N=C(N)NCCC[C@H](NC(=O)c1cc2ccccc2n1Cc1ccc(C(=N)N)cc1)C(N)=O [Example 81, 1-(4-Amidinobenzyl)-1H-indole-2-carbonyl-L-arginyl amide trifluoroacetic acid salt] | 63000 nM |
| C[C@@H](NC(=O)c1cc2cc(OCc3ccccc3)ccc2n1Cc1cccc(C(N)=S)c1)c1ccccc1 [21(4), (R)-5-Benzyloxy-1-(3-thiocarbamoyl-benzyl)-1H-indole-2-carboxylic acid (1-phenyl-ethyl)amide] | 4800 nM |
| N=C(N)c1cccc(CNC(=O)c2c(Cl)c3ccccc3n2Cc2cccc(C(=N)N)c2)c1 [Example 115] | 9 nM |
| Cc1cc(CNC(=O)c2cc3c(O)cccc3n2Cc2cccc(C(=N)N)c2)cc(C(F)(F)F)c1 [Example 112] | 13 nM |
| C[N+](C)(C)c1ccc(CNC(=O)c2c(Cl)c3ccccc3n2Cc2cccc(C(=N)N)c2)cc1 [Example 106] | 40 nM |
| N=C(N)c1cccc(Cn2c(C(=O)NCc3cc(Cl)cc(Cl)c3)cc3c(O)cccc32)c1 [Example 120] | 4.8 nM |
| C[N+](C)(C)Cc1ccc(CNC(=O)c2cc3ccccc3n2Cc2cccc(C(=N)N)c2)cc1 [Example 6, [4-({[1-(3-Amidino-benzyl)-1H-indole-2-carbonyl]-amino}-methyl)-benzyl]-trimethyl-ammonium trifluoroacetate trifluoroacetic acid salt, trifluoroacetate trifluoroacetic acid …] | 400 nM |
| N=C(N)c1ccc(CNC(=O)c2cc3c(O)cccc3n2Cc2cccc(C(=N)N)c2)cc1.O=C(O)C(F)(F)F.O=C(O)C(F)(F)F [Example 78, 1-(3-Amidino-benzyl)-4-hydroxy-1H-indole-2-carboxylic acid 4-amidino-benzylamide trifluoroacetic acid salt] | 210 nM |
| CN1CCC(C(NC(=O)c2cc3ccccc3n2Cc2cccc(C(=N)N)c2)c2ccc3cc(Cl)ccc3c2)CC1.O=C(O)C(F)(F)F.O=C(O)C(F)(F)F (racemic) [Example 27, (RS)-1-(3-Amidino-benzyl)-1H-indole-2-carboxylic acid ((6-chloro-2-naphthyl)-(1-methyl-piperidin-4-yl)-methyl)amide trifluoroacetic acid salt] | 610 nM |
| N=C(N)c1ccc(C(=O)N2CCc3c(n(Cc4cccc(C(=N)N)c4)c4ccccc34)C2)cc1 [Example 84, 2-(4-Amidino-benzoyl)-9-(3-amidino-benzyl)-1,2,3,4-tetrahydro-9H-pyrido[3,4-b]indole trifluoroacetic acid salt] | 900 nM |
| COc1cccc2c1cc(C(=O)NC(c1ccccc1)c1cc[n+](C)cc1)n2Cc1cccc(C(=N)N)c1.O=C(O)C(F)(F)F.O=C([O-])C(F)(F)F (racemic) [Example 24, (RS)-4-({[1-(3-Amidino-benzyl)-4-methoxy-1H-indole-2-carbonyl]-amino}-phenyl-methyl)-1-methyl-pyridinium trifluoroacetate trifluoroacetic acid salt, trifluoroacetate trifluoroacetic acid …] | 110 nM |
| CC(=O)O.CC(=O)[O-].C[N+](C)(C)c1ccc(CNC(=O)c2cc3c(O)cccc3n2Cc2cccc(C(=N)N)c2)cc1 [Example 39, [4-({[1-(3-Amidino-benzyl)-4-hydroxy-1H-indole-2-carbonyl]-amino}-methyl)-phenyl]-trimethyl-ammonium acetate acetic acid salt] | 7 nM |
| Cc1cccc2c1cc(C(=O)NCc1ccc([N+](C)(C)C)cc1)n2Cc1cccc(C(=N)N)c1.O=C(O)C(F)(F)F.O=C([O-])C(F)(F)F [Example 35, [4-({[1-(3-Amidino-benzyl)-4-methyl-1H-indole-2-carbonyl]-amino}-methyl)-phenyl]-trimethyl-ammonium trifluoroacetate trifluoroacetic acid salt, trifluoroacetate trifluoroacetic acid …] | 9 nM |
| C[N+](C)(C)c1ccc(CNC(=O)c2cc3ccccc3n2Cc2cccc(C(=N)N)c2)cc1 [Example 4, [4-({[1-(3-Amidino-benzyl)-1H-indole-2-carbonyl]-amino}-methyl)-phenyl]-trimethyl-ammonium trifluoroacetate trifluoroacetic acid salt, trifluoroacetate trifluoroacetic acid …] | 90 nM |
| CC(NC(=O)c1cc2ccccc2n1Cc1cccc(C(=N)N)c1)c1cc[n+](C)cc1 (racemic) [Example 2, (RS)-4-(1-{[1-(3-Amidino-benzyl)-1H-indole-2-carbonyl]-amino}-ethyl)-1-methylpyridinium trifluoroacetate trifluoroacetic acid salt, trifluoroacetate trifluoroacetic acid …] | 100 nM |
